From PMC6390093, “Structural basis of small RNA hydrolysis by oligoribonuclease (CpsORN) from Colwellia psychrerythraea strain 34H” (Scientific Reports, 2019)
Positions count from the first letter of the chain named. Names and notes keep the numbering of the source. Blank lines part the entries; values can stand above or below the molecule they belong to.

Key:
CpsORN [1] = molecular target: T1, CpsORN (Colwellia psychrerythraea, UniProt Q47VZ4); experiment: X-ray crystal structure, […] Å; format: binding; conditions: 5 mM uridine added, 1 mM MnCl2; active site with Mn2+; two molecules per site; text describes a phosphate on U2
T1 construct: gene orn

CpsORN [2] = molecular target: T2, CpsORN (Colwellia psychrerythraea, UniProt Q47VZ4, D163A); experiment: X-ray crystal structure, […] Å; format: binding; conditions: 5 mM pNP-TMP, 1 mM MnCl2 added, no metal seen in active site; two molecules per site; inactive mutant
T2 construct: gene orn

CpsORN [3] = molecular target: T1, CpsORN; experiment: spectrophotometric release of p-nitrophenolate at […] nm; format: biochemical; conditions: 3 mM substrate, 1 mM MnCl2, 50 mM Tris pH 8.0, 150 mM NaCl, 25 °C, 400 nM protein
[4] = molecular target: the molecule itself; experiment: AUC; sedimentation velocity, 0.5 mg/mL CpsORN in 20 mM Tris-HCl pH 8.0, 150 mM NaCl, 45,000 rpm, monitored at 280 nm, SEDFIT
[5] = molecular target: the molecule itself; experiment: crystal structure; four crystal forms (unliganded, pNP-TMP-bound, linked uridine-bound, separated uridine-bound), sitting- or hanging-drop vapour diffusion at 293 K

T2 sequence (Q47VZ4 whole entry D163A): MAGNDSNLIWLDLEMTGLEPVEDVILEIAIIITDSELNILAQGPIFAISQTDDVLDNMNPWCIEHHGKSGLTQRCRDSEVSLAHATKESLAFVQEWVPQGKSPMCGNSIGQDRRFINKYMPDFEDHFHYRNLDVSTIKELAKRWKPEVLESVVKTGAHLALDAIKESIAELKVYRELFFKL

X-ray crystal structure, 2.2 Å (CpsORN [1]): 6A4F (separated uridine-bound CpsORN)
Molecule: O=c1ccn([C@@H]2O[C@H](COP(=O)(O)O)[C@@H](O)[C@H]2O)c(=O)[nH]1

Molecule: Cc1cn([C@H]2C[C@H](O)[C@@H](COP(=O)(O)Oc3ccc([N+](=O)[O-])cc3)O2)c(=O)[nH]c1=O [pNP-TMP]
X-ray crystal structure, 2.2 Å (CpsORN [2]): The pNP-TMP complexed D163A mutant CpsORN crystal contains two pNP-TMP molecules in the active site | spectrophotometric release of p-nitrophenolate at 420 nm (CpsORN [3]): CpsORN showed hydrolysis activity toward pNP-TMP in the presence of manganese or magnesium

B1: oligoribonuclease from Colwellia psychrerythraea strain 34H (CpsORN), wild-type (enzyme, UniProt Q47VZ4 1-181, looked up)
chain: MAGNDSNLIWLDLEMTGLEPVEDVILEIAIIITDSELNILAQGPIFAISQTDDVLDNMNPWCIEHHGKSGLTQRCRDSEVSLAHATKESLAFVQEWVPQGKSPMCGNSIGQDRRFINKYMPDFEDHFHYRNLDVSTIKELAKRWKPEVLESVVKTGAHLALDDIKESIAELKVYRELFFKL
notes: oligoribonuclease (CpsORN) of Colwellia psychrerythraea strain 34H, full-length gene orn, residues 1-181; pET-28a construct with a thrombin site after the His tag; also called unliganded CpsORN; source: E. coli BL21(DE3), purified (Ni-NTA, thrombin cleavage, Superdex 200); not shown: His6, N-terminal, cleaved
stoichiometry N [4]: 2

B2: CpsORN D163A inactive mutant (enzyme, Colwellia psychrerythraea strain 34H, UniProt Q47VZ4 1-181, looked up)
chain: B1 chain with D163A
notes: oligoribonuclease (CpsORN) of Colwellia psychrerythraea strain 34H, full-length gene orn with Asp163 replaced by alanine; Made from the wild-type plasmid and purified by the same procedure as the wild type; also called D163A mutant; source: E. coli BL21(DE3), purified (Ni-NTA, thrombin cleavage, Superdex 200); not shown: His6, N-terminal, cleaved
binding result [5]: binds
